Patent US20260374814A1, “Synthetic Peptide And Construct” (TOAGOSEI CO., LTD, priority 2022, published 2026)
FAM = 5(6)-carboxyfluorescein

test system: NSC-34 cells; test: Evaluation of Cell Membrane Permeability by Flow Cytometry (transfer of FAM construct into NSC-34 cells); type: cell-based; conditions: NSC-34 cells (mouse motor neuron-like hybrid cell line); 20 μM in culture medium; 20 hours at 37 °C, 5% CO2; flow cytometer, detector FL2
Method: As the eukaryotic cells, NSC-34 cells (mouse motor neuron-like hybrid cell line) were used and the cell membrane permeability of the peptides 1 to 3 was analyzed. As a culture medium of the NSC-34 cell, 10% fetal bovine serum (FBS)-containing Dulbecco's modified Eagle's medium (DMEM (Cat No. 044-29765, manufactured by FUJIFILM Wako Pure Chemical Corporation)) was used. The samples 1 to 3 were each dissolved in dimethyl sulfoxide (DMSO) to prepare sample solutions 1 to 3 with a sample concentration of 4 mM. Then, the sample solutions were diluted in the culture medium to prepare 40 μM sample solutions 1 to 3. The aforementioned prepared sample solutions 1 to 3 were used in Examples 1 to 3, and the FAM solution was used in Reference Example 1.
The NSC-34 cell was suspended in the culture medium to prepare a cell suspension of 2×10^5 cells/mL. The cell suspension was added by 1 mL to a well of a commercially available six-hole (well) plate (manufactured by AGC TECHNO GLASS Co., Ltd.) so as to seed the NSC-34 cell to be 2×10^5 cells/well. Next, 1 mL of the 40 μM sample solution 1 was added to the well so that the sample concentration in the culture medium in the well became 20 μM. After that, the six-well plate was left at rest in a cell culture apparatus, and incubated for 20 hours at 37 °C under a 5% CO2 condition.
After the 20-hour incubation, the culture supernatant was removed from the well and the cells in the well were cleaned twice with 1 mL of PBS. Next, 100 μL of the 0.25% trypsin/EDTA solution was added to the well and the incubation was performed for three minutes at 37 °C. After the incubation, 900 μL of the culture medium was added to the well to deactivate the trypsin. Subsequently, the cell suspension in the well was transferred to a tube and the cells were collected. This tube was subjected to five-minute centrifugal separation at 4 °C under a condition of 210×g. […]
Regarding the obtained cells (cell pellet), the cell membrane permeability of the sample 1 was analyzed using a flow cytometer. […]
Using the aforementioned flow cytometer, gating based on forward scatter (FSC) and side scatter (SSC) was performed to set a gate about a cell group to be analyzed, and the fluorescence intensity was measured about the cell group in this gate. […] The fluorescence intensity was measured using a fluorescence detector FL2 of the flow cytometer (optimum detection wavelength around 543 nm) capable of detecting the fluorescence wavelength of FAM. Regarding this measurement result, the analysis was performed using commercially available analysis software “FlowJo” (manufactured by TreeStar) to obtain mean fluorescence intensity (MFI) of the cell group to be measured. […]

| Substance | MFI (mean fluorescence intensity) |
| --- | --- |
| 5(6)-carboxyfluorescein [Reference Example 1, reference compound] | 10.9 |
| Ac-SASAG-FAM [Example 1] | 20.9 |
| Ac-SASASAG-FAM (Ac-SASASAG-{FAM}) [Example 2, construct: peptide 2 (SASASAG), N-terminus acetylated, with FAM bonded to the C-terminus amino acid residue] | 19.2 |
| Ac-SASASASAG-FAM (Ac-SASASASAG-{FAM}) [Example 3, construct: peptide 3 (…), N-terminus acetylated, with FAM bonded to the C-terminus amino acid residue] | 22.8 |
